One data set concerns HCV. The settings on record: monotherapy, cited from earlier work.
Data set [1] has as its system BFU-E (human bone marrow cells). The data set can be described thus: Human bone marrow toxicity BFU-E clonogenic assay. To be noted: read-out: IC50 BFU-E, colony formation after 14 to 18 days.
Protocol: (§1) The culture assays for CFU-GM and BFU-E were performed using a bilayer soft agar or methylcellulose method. Drugs were diluted in tissue culture medium and filtered. After 14 to 18 days at 37° C. in a humidified atmosphere of 5% CO2 in air, colonies of greater than 50 cells were counted using an inverted microscope.
Data set [2] can be described thus: Bioavailability assay in Cynomolgus monkeys. Type of data set: in vivo, cynomolgus monkey. The settings on record: for Norm AUC: individual monkeys, AUC normalised to dose in mg; for Mean Norm AUC: mean of 3 monkeys. On the procedure:
Within 1 week prior to the study initiation, the cynomolgus monkey was surgically implanted with a chronic venous catheter and subcutaneous venous access port (VAP) to facilitate blood collection and underwent a physical examination including hematology and serum chemistry evaluations and the body weight was recorded. […] Each dosing syringe was weighed before dosing to gravimetrically determine the quantity of formulation administered. Urine samples were collected via pan catch at the designated intervals (approximately 18-0 hours pre-dose, 0-4, 4-8 and 8-12 hours post-dosage) and processed.

Data set [3] deals with CFU-GM (human bone marrow cells). The data set can be described thus: Human bone marrow toxicity CFU-GM clonogenic assay. To be noted: read-out: IC50 CFU-GM, colony formation after 14 to 18 days.
Protocol: as §1

pIC50: −log10 of the molar value. Several values for one entry are separate records, joined by “and”; a condition that tells them apart may be missing. Equal entries are not always repeated.

For `NC(=O)c1ncn([C@@H]2O[C@H](CO)[C@@H](O)[C@H]2O)n1` [ribavirin, 1-β-D-ribofuranosyl-1-1,2,4-triazole-3-carboxamide], the “effect on serum levels of HCV-RNA” value with HCV (HCV patients) is recorded as “does not lower serum levels of HCV-RNA”. The “patients in whom serum amino transferase levels are reduced to normal” value with HCV is listed as 40%.

As to `C[C@@]1(O)[C@H](O)[C@@H](CO)O[C@H]1n1cnc2c(=O)[nH]c(N)nc21` [β-D-2′-CH3-riboG], the negative logarithm of the IC50 (pIC50) in data set [1] was less than 4.00; in data set [3], less than 5.00. In data set [2] (IV 10 mg/kg), this molecule returned a CL of 21.3 ± 8 mL/min/kg. The Cmax worked out at 6945.6 ± 1886.0 ng/mL in data set [2] (IV 10 mg/kg) and 217.7 ± 132.1 ng/mL in data set [2] (PO 10 mg/kg). The T1/2 in data set [2] (IV 10 mg/kg) stood at 7.9 ± 5.4 h; in data set [2] (PO 10 mg/kg), 10.3 ± 4.1 h. The Tmax in data set [2] (IV 10 mg/kg) stood at 0.25 ± 0.00 h; in data set [2] (PO 10 mg/kg), 2.00 ± 1.00 h. The Vss in data set [2] (IV 10 mg/kg) is listed as 2.09 ± 0.54 L/kg. Further, the AUC in data set [2] (IV 10 mg/kg, mean ± spread) is 8758.0 ± 4212.9 ng·h/mL; in data set [2] (IV bolus 10 mg/kg, individual monkeys 1-3, 10 mg/kg), 6079 ng·h/mL and 13614 ng·h/mL and 6581 ng·h/mL; in data set [2] (PO 10 mg/kg, mean ± spread) it was 1166.0 ± 589.6 ng·h/mL; in data set [2] (PO gavage 10 mg/kg, individual monkeys 1-3, 10 mg/kg), 758 ng·h/mL and 898 ng·h/mL and 1842 ng·h/mL. Also, the “Norm AUC” value was 293.4 ng·h/mL/mg and 293.2 ng·h/mL/mg and 268.3 ng·h/mL/mg in data set [2] (IV); 26.1 ng·h/mL/mg and 29.0 ng·h/mL/mg and 61.3 ng·h/mL/mg in data set [2] (PO). Also, the figures for the “Mean Norm AUC” value in data set [2] (IV) and in data set [2] (PO) were 284.9 ng·h/mL/mg and 38.8 ng·h/mL/mg, respectively. In data set [2] (Table 2, PO vs IV mean norm AUC), the “F (oral bioavailability)” value is reported as 13.6%. In data set [2] (Table 3, 10 mg/kg PO vs IV), the F is 13.8%.

With `C[C@@]1(O)[C@H](O)[C@@H](CO)O[C@H]1n1cnc2c(N)ncnc21` [β-D-2′-CH3-riboA, 2′-C-methylriboadenine], the pIC50 in data set [1] and in data set [3] was less than 4.00 each time.

In general, pIC50 refers to −log10 of the IC50, conventionally taken in molar units. The Cmax is the peak of the concentration-time curve. As usually defined, the Tmax is the time at which the peak concentration occurs. The Vss is a proportionality between amount in the body and measured concentration, not a real space. Low values mean little distribution into tissue, high ones wide distribution into tissue. By AUC is commonly meant the area under the concentration-time curve, a measure of exposure. Low values mean less exposure, high ones more exposure.

(Values after patent publication US8299038B2, “Methods and compositions for treating hepatitis C virus” (Idenix Pharmaceuticals, Inc., priority 2000, dated 2012).)
